Data reported in paper PMC12455637, “Functionalizing Nisin with a Sugar Moiety Improves Its Solubility and Results in an Altered Antibacterial Spectrum and Mode of Action” (ACS Synthetic Biology, 2025).
≈ marks a conversion by molar mass, not a printed value. Square brackets hold non-standard residues; d marks the D form. Primed or numbered codes have the meaning given here. Side chains are listed from the residue outwards. Ends that are not written are not given here. triazole = not defined here; Hpg′ = not defined here

Experiments:
[1] = tested on: Bacillus cereus CH-85; test: MIC, broth microdilution; type: cell-based; conditions: inoculum ~5 × 10^5 CFU/mL, overnight 37 °C, HPLC-purified peptides
Method: (§1) The minimal inhibitory concentration (MIC) values were assessed through broth microdilution following standard guidelines. The inoculum was adjusted to around 5 × 10^5 CFU/mL. MIC was characterized as the lowest concentration of the antimicrobial substance at which no visible growth was observed following overnight incubation at 37 °C.

[2] = tested on: Listeria monocytogenes LMG10470; test: MIC, broth microdilution; type: cell-based; conditions: inoculum ~5 × 10^5 CFU/mL, overnight 37 °C, HPLC-purified peptides
Method: as §1

[3] = tested on: Enterococcus faecium LMG16003 (VRE); type: cell-based; conditions: broth microdilution, inoculum ~5 × 10^5 CFU/mL, overnight 37 °C, HPLC-purified peptides
Method: as §1

[4] = tested on: Staphylococcus aureus LMG15975 (MRSA); type: cell-based; conditions: broth microdilution, inoculum ~5 × 10^5 CFU/mL, overnight 37 °C, HPLC-purified peptides
Method: as §1

[5] = tested on: E. faecium; type: cell-based, Enterococcus faecium; conditions: for decrease in zone of inhibition (activity) on Hpg labeling: 30 μL of 1 mg/mL in 8 mm wells, zone area minus well area, 3 experiments
Method: 2 Production of single-Met containing nisin and nisin variants labeled with Met, Hpg or Hpg–Glc and their antibacterial activity against E. faecium strain. (a) Quantification of fully modified nisin variants labeled with Met or Hpg using HPLC as per Schmitt et al. (b) Evaluation of the antimicrobial efficacy of nisin and its variants against E. faecium through agar well diffusion assay. Each trial was repeated 3 times. The relative activity was determined by measuring inhibition zone diameters in millimeters, calculated as the area of the zone (πr ^2) minus the area of the well (πr ^2) in millimeters.
An overnight culture was added at a concentration of 0.1% (v/v) to molten GM17 agar (for E. faecium and E. faecalis) or LB agar (for S. aureus and B. cereus) at 45 °C, and then 30 mL of this mixture was poured onto a plate. After the agar solidified, wells of 8 mm were created by punching in the agar and filled with 30 μL of a 1 mg/mL lantibiotic solution. If needed, lantibiotics were activated by adding 3 μL of 1 mg/mL NisP directly to the well. The quantity of nisin was determined using HPLC as previously outlined. The agar plate was then incubated at 37 °C overnight, and the zones of inhibition were measured. The presented data results from three independent experiments. Zone diameters were measured in millimeters and recorded as the area of the zone (πr ^2) minus the area of the well (πr ^2) in millimeters.

[6] = tested on: various Gram-positive bacteria; conditions: ref citation numbers not given; cited from earlier work
Excerpt: Recently, we introduced the Met analog Aha at position 17 and used click chemistry to ...

[7] = tested on: E. faecium; test: Time-kill assay; type: cell-based, Enterococcus faecium; conditions: 5-fold MIC against E. faecium
Method: The antimicrobial effectiveness of nisin, nisin(1–22), and nisin(M21V)–Gal was assessed using a method previously described by Guo et al. , In summary, an overnight culture of E. faecium was diluted 50 times in GM17 medium and cultured at 37 °C. The bacteria were grown until reaching an optical density at 600 nm (OD600) of 0.5, and then the cell concentration was adjusted to 5 × 10^5 colony-forming units per milliliter (CFU/mL). Following this, the bacteria were exposed to a 5-fold MIC of each peptide. An untreated cell suspension was used as a control. At specific time intervals, 50 μL samples were taken, and both undiluted and 10-fold serially diluted suspensions were plated on GM17 agar. The plates were then incubated overnight at 37 °C, and the resulting colonies were counted and expressed as CFU/mL. Each experiment was conducted in triplicate.

[8] = compared to the same peptide labeled with Met

`C#CCC[C@H](NC(=O)[C@H](CC(N)=O)NC(=O)[C@@H]1CS[C@@H](C)[C@@H](NC(=O)[C@H](CCCCN)NC(=O)[C@@H]2CS[C@@H](C)[C@@H](NC(=O)[C@@H]3CSC[C@@H](NC(=O)/C(=C/C)NC(=O)[C@@H](N)[C@@H](C)CC)C(=O)N[C@@H]([C@@H](C)CC)C(=O)NC(=C)C(=O)N[C@@H](CC(C)C)C(=O)N3)C(=O)N3CCC[C@H]3C(=O)NCC(=O)N2)C(=O)NCC(=O)N[C@@H](C)C(=O)N[C@@H](CC(C)C)C(=O)N[C@@H]([C@@H](C)CC)C(=O)NCC(=O)N1)C(=O)N[C@@H](CCCCN)C(=O)N[C@H]1C(=O)N[C@@H](C)C(=O)N[C@H]2C(=O)N[C@@H](CS[C@H]1C)C(=O)N[C@@H](Cc1c[nH]cn1)C(=O)N[C@H](C(=O)N[C@@H](CO)C(=O)N[C@H](C(=O)N[C@@H](Cc1c[nH]cn1)C(=O)N[C@H](C(=O)NC(=C)C(=O)N[C@@H](CCCCN)C(=O)O)C(C)C)[C@@H](C)CC)CS[C@H]2C` [nisin(M17I)(Hpg)] showed an MIC [1] of 121.5 µg/mL (≈ 36.7 µM), an MIC [2] of 121.5 µg/mL (≈ 36.7 µM) and an MIC [3] of 15.2 µg/mL (≈ 4.59 µM). For the same compound, the MIC [4] was 30.4 µg/mL (≈ 9.17 µM) and the “decrease in zone of inhibition (activity) on Hpg labeling” value (“decrease in zone of inhibition” below) [5, 8] was 30%.

`C#CCC[C@@H]1NC(=O)[C@H](CC(C)C)NC(=O)[C@H](C)NC(=O)CNC(=O)[C@H](NC(=O)[C@H](CCCCN)NC(=O)[C@@H]2CS[C@@H](C)[C@@H](NC(=O)[C@@H]3CSC[C@@H](NC(=O)/C(=C/C)NC(=O)[C@@H](N)[C@@H](C)CC)C(=O)N[C@@H]([C@@H](C)CC)C(=O)NC(=C)C(=O)N[C@@H](CC(C)C)C(=O)N3)C(=O)N3CCC[C@H]3C(=O)NCC(=O)N2)[C@H](C)SC[C@@H](C(=O)N[C@@H](CC(N)=O)C(=O)N[C@H](C(=O)N[C@@H](CCCCN)C(=O)N[C@H]2C(=O)N[C@@H](C)C(=O)N[C@H]3C(=O)N[C@@H](CS[C@H]2C)C(=O)N[C@@H](Cc2c[nH]cn2)C(=O)N[C@H](C(=O)N[C@@H](CO)C(=O)N[C@H](C(=O)N[C@@H](Cc2c[nH]cn2)C(=O)N[C@H](C(=O)NC(=C)C(=O)N[C@@H](CCCCN)C(=O)O)C(C)C)[C@@H](C)CC)CS[C@H]3C)C(C)C)NC(=O)CNC1=O` [nisin(M21V)(Hpg)] gave an MIC [1] of 30.4 µg/mL (≈ 9.21 µM), an MIC [2] of 30.4 µg/mL (≈ 9.21 µM) and an MIC [3] of 7.6 µg/mL (≈ 2.3 µM). For the same compound, the MIC [4] was 15.2 µg/mL (≈ 4.61 µM) and the “decrease in zone of inhibition” value [5, 8] was 17%.

With `C#CCC[C@H](NC(=O)[C@@H]1CS[C@@H](C)[C@@H](NC(=O)[C@@H](NC(=O)[C@@H]2CS[C@@H](C)[C@@H](NC(=O)[C@@H]3CSC[C@@H](NC(=O)/C(=C/C)NC(=O)[C@@H](N)[C@@H](C)CC)C(=O)N[C@@H]([C@@H](C)CC)C(=O)NC(=C)C(=O)N[C@@H](CC(C)C)C(=O)N3)C(=O)N[C@@H](C)C(=O)NCC(=O)N2)[C@@H](C)CC)C(=O)NCC(=O)N[C@@H](C(C)C)C(=O)N[C@@H]([C@@H](C)CC)C(=O)N[C@@H]([C@@H](C)CC)C(=O)N/C(=C\C)C(=O)N1)C(=O)N[C@@H]1CSC[C@@H](C(=O)N[C@@H](CCCCN)C(=O)O)NC(=O)CNC(=O)[C@H](CC(N)=O)NC1=O` [rombocin(M17I)(Hpg)] the “decrease in zone of inhibition” value [5, 8] was 49%.

With `C#CCC[C@@H]1NC(=O)[C@H]([C@@H](C)CC)NC(=O)[C@H](C(C)C)NC(=O)CNC(=O)[C@H](NC(=O)[C@@H](NC(=O)[C@@H]2CS[C@@H](C)[C@@H](NC(=O)[C@@H]3CSC[C@@H](NC(=O)/C(=C/C)NC(=O)[C@@H](N)[C@@H](C)CC)C(=O)N[C@@H]([C@@H](C)CC)C(=O)NC(=C)C(=O)N[C@@H](CC(C)C)C(=O)N3)C(=O)N[C@@H](C)C(=O)NCC(=O)N2)[C@@H](C)CC)[C@H](C)SC[C@@H](C(=O)N[C@H](C(=O)N[C@@H]2CSC[C@@H](C(=O)N[C@@H](CCCCN)C(=O)O)NC(=O)CNC(=O)[C@H](CC(N)=O)NC2=O)C(C)C)NC(=O)/C(=C/C)NC1=O` [rombocin(M20V)(Hpg)] the “decrease in zone of inhibition” value [5, 8] was 13%.

In the case of “M17W: literature nisin mutant with M17W mutation (ITSISLCTPGCKTGALWGCNMKTATCHCSIHVSK; cysteine pairing not given here; also: lantibiotic nisin-A; UniProt P13068 24-57, looked up, variant M17W) [reference compound]”, the “influence of M17 mutation on antimicrobial activity” value [6] is given as “reduced activity”.

With “nisin(1–22): truncated variant of nisin, bacteriostatic control that only binds lipid II (ITSISLCTPGCKTGALMGCNMK; cysteine pairing not given here; also: lantibiotic nisin-A; UniProt P13068 24-45, looked up, fragment) [reference compound]” the “bacteriostatic or bactericidal nature” value [7] was “bacteriostatic effect”.

For “nisin(M17I): single-Met nisin mutant M17I, labeled with Met (ITSISLCTPGCKTGALIGCNMKTATCHCSIHVSK; not fully specified (some residues, bridges); cysteine pairing not given here; also: lantibiotic nisin-A, labeled with Met; UniProt P13068 24-57, looked up, variant M17I)”, the “influence of M17 mutation on antimicrobial activity” value [6] is listed as “reduced activity”.

In the case of “nisin(M17I)–Glc (ITSISLCTPGCKTGALIGCN[Hpg′]([triazole-2‑deoxy‑D‑glucose])KTATCHCSIHVSK; not fully specified (some residues, bridges); reading uncertain; also: nisin-A lantibiotic thioether rings and dehydro residues, not placed; UniProt P13068 24-57, looked up, variant M17I)”, the “decrease of activity after glucose attachment” value ([5]; compared to the Hpg-labeled peptide, agar well diffusion) is reported as 15% and the “decrease of activity of the glucose conjugate” value ([5]; compared to the same peptide labeled with Met, agar well diffusion) is reported as 41%.

With “nisin(M21V): single-Met nisin mutant M21V, labeled with Met (ITSISLCTPGCKTGALMGCNVKTATCHCSIHVSK; not fully specified (some residues, bridges); cysteine pairing not given here; also: lantibiotic nisin-A, labeled with Met; UniProt P13068 24-57, looked up, variant M21V)” the “antibacterial activity in words” value ([5]; agar well diffusion, 30 μL of 1 mg/mL) was “highest antibacterial activity”.
